Test results from ChEMBL document CHEMBL1201862, “PubChem BioAssay data set” (2004).
Activity calls are given as the source filed them.

How the values were obtained:
[1] = target: T1, E3 ubiquitin-protein ligase XIAP (Homo sapiens, UniProt P98170); experiment: Counter Screen using XIAP-Bir3 for Chemical Antagonists of Bir1/2 domains of IAP-family anti-apoptotic proteins. [Related pubchem assays (depositor defined):AID1018, AID1449, AID1514, AID1638, AID1749, AID1750, AID488957, AID488963]
[2] = target: T1, E3 ubiquitin-protein ligase XIAP; experiment: small molecules displacing peptide from XIAP – biochemical, IAP family, fluorescence polarization (AID 1018); assay type: functional
[3] = target: T2, Type-1 angiotensin II receptor (Homo sapiens, UniProt P30556); experiment: antagonism of angiotensin II type 1 receptor – cell-based, uHTS hits, selectivity assay for APJ receptor antagonist project, dose response (AID 463214); assay type: functional;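 also: antagonist potency against angiotensin II stimulated AT1 response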
T2 sequence (P30556 whole entry): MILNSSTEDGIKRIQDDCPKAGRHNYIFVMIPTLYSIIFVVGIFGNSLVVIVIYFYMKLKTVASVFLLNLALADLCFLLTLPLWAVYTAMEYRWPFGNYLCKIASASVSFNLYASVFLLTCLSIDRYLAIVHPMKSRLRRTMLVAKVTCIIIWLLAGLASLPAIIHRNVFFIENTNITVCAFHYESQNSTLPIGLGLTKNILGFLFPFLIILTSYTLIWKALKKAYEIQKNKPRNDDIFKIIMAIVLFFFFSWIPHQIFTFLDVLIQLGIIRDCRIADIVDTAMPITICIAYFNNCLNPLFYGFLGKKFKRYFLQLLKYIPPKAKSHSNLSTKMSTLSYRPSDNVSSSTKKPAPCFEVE

Beta-galactosidase = Beta-galactosidase (Escherichia coli, UniProt Q8VNN2); experiment: PubChem AID 485352; assay type: functional
Beta-galactosidase, sequence (Q8VNN2 whole entry): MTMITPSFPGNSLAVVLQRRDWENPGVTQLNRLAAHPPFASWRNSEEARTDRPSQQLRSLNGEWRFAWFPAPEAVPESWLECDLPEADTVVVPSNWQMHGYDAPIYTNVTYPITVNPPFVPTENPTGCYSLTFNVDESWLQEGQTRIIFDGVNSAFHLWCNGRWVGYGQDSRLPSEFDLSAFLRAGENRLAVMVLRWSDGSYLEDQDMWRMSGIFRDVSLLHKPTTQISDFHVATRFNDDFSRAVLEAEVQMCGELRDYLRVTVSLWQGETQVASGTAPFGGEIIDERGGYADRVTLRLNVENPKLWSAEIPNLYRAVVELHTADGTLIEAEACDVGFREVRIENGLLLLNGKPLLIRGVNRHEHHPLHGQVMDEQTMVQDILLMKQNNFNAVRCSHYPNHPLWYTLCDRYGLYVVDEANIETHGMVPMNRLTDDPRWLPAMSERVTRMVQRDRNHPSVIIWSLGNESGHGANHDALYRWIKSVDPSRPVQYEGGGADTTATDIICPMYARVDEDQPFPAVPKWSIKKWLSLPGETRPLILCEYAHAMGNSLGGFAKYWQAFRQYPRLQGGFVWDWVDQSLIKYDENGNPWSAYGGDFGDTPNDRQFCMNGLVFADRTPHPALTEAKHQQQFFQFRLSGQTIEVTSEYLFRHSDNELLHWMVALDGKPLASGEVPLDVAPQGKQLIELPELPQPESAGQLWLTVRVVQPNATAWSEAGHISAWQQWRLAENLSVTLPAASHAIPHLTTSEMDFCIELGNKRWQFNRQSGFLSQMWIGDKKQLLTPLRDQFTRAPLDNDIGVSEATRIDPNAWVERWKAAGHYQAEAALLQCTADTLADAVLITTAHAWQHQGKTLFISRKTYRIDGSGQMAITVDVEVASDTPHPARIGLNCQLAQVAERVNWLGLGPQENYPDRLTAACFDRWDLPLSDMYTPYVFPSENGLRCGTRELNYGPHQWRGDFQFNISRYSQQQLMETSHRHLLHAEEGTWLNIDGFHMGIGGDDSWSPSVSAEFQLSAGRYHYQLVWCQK

[4] = target: T3, Heat shock factor protein 1 (Mus musculus, UniProt P38532); experiment: enhancement of HSF1-driven luciferase signal – cell-based, NIH3T3, luminescence, dose retest, confirmation (AID 435004); assay type: functional;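 also: stress induced by proteasome inhibitor MG132 added 30 min after compound; luciferase reporter driven by HSF1 response element in NIH3T3 cells; actives raise luminescence as potentiators of the MG132 stress response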
T3 sequence (P38532 whole entry): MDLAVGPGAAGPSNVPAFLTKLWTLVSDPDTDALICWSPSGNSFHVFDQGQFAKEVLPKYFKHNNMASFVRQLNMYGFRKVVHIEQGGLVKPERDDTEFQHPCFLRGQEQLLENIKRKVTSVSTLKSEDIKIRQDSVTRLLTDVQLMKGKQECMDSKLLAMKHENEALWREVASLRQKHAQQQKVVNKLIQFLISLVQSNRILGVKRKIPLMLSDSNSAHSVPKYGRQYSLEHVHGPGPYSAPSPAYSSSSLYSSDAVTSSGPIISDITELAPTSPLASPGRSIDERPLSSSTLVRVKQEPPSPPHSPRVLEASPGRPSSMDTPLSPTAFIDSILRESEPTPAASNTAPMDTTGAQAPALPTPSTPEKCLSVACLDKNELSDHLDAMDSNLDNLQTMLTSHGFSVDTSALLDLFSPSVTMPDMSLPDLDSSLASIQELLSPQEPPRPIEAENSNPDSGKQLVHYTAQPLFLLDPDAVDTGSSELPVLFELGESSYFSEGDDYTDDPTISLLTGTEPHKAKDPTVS

SUMO-activating enzyme [5] = target: T4, SUMO-activating enzyme (Homo sapiens, UniProt Q9UBT2); experiment: blockers of SAE1/SAE2–UBC9 SUMO transfer – biochemical, HTRF, uHTS, primary screen (AID 2006); assay type: protein-complex assay
T4 sequence (Q9UBE0 whole entry): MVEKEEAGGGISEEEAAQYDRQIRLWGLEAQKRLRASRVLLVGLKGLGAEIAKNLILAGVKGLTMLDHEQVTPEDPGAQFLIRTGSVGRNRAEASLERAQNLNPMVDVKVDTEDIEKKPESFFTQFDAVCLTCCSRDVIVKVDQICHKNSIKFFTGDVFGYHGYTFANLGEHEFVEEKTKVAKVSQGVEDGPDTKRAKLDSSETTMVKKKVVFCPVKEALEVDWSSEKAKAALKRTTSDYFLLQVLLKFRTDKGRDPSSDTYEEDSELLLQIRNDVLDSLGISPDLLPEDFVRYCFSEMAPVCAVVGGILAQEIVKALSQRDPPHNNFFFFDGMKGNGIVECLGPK
T4 sequence (Q9UBT2 whole entry): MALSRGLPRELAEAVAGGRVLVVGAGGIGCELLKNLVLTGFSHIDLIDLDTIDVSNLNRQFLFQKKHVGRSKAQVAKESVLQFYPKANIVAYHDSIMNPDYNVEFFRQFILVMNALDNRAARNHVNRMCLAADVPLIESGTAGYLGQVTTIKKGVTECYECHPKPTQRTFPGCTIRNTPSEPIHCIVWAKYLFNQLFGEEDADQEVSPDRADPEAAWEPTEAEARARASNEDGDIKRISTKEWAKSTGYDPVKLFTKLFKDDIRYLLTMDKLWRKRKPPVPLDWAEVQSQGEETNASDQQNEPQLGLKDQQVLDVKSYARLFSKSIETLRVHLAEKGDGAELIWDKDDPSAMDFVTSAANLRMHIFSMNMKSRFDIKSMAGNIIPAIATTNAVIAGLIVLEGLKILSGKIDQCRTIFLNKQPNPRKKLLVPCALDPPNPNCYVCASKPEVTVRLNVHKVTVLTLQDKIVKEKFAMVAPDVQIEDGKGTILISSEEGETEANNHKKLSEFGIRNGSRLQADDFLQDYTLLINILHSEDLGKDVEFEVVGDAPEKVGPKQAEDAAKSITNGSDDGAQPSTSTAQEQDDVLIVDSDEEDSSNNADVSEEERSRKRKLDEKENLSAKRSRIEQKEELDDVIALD

SUMO-activating enzyme [6] = target: T4, SUMO-activating enzyme; experiment: blockers of UBC9-mediated SUMO conjugation – biochemical, AlphaScreen, SUMOylation inhibitor project, confirmation (AID 2018); assay type: functional
Vero = experiment: viability of Vero cells under compound – cytotoxicity control for flavivirus capping enzyme inhibitors (AID 588742); assay type: functional; conditions: Chlorocebus sabaeus
Large T antigen = Large T antigen (Simian virus 40, UniProt P03070); assay type: functional, Betapolyomavirus macacae;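 also: Confirmatory-stage PubChem screen for compounds that inhibit SV40 T antigen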
Large T antigen, sequence (P03070 whole entry): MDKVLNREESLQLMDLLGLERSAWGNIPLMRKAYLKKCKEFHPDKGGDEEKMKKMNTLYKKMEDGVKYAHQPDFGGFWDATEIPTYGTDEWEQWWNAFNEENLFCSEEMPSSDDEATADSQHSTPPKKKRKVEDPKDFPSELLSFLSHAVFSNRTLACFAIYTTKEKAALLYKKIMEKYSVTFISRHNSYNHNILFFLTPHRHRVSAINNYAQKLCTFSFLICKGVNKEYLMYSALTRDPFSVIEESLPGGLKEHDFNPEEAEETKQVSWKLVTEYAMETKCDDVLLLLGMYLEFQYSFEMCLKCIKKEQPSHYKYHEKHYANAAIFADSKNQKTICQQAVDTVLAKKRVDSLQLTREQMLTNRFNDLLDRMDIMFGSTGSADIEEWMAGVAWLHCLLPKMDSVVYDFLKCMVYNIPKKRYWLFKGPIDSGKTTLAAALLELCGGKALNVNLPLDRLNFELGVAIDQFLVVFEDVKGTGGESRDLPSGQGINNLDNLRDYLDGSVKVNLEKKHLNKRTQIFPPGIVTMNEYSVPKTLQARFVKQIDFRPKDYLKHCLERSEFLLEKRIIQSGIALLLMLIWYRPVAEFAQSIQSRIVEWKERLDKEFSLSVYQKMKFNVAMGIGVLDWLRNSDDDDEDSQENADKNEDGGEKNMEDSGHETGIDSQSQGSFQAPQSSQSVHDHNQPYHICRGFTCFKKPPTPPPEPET

[7] = target: T5, Corticotropin-releasing factor receptor 2/Corticotropin-releasing factor-binding protein (Homo sapiens, UniProt P24387+Q13324); experiment: activators of CRF receptor 2 with binding protein – uHTS hits, confirmation (AID 602473); assay type: functional; conditions: read-out: EC50_Mean
T5 sequence (Q13324 whole entry): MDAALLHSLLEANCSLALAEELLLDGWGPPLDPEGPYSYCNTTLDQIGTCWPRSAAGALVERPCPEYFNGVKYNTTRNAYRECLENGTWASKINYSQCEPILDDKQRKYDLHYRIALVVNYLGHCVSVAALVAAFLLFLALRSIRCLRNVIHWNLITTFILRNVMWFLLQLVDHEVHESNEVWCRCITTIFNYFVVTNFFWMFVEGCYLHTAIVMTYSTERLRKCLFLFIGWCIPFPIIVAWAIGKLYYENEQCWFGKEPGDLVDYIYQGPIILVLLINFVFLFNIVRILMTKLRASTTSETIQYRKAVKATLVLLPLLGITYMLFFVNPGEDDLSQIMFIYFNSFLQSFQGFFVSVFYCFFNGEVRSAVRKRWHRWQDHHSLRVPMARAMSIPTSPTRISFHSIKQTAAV
T5 sequence (P24387 whole entry): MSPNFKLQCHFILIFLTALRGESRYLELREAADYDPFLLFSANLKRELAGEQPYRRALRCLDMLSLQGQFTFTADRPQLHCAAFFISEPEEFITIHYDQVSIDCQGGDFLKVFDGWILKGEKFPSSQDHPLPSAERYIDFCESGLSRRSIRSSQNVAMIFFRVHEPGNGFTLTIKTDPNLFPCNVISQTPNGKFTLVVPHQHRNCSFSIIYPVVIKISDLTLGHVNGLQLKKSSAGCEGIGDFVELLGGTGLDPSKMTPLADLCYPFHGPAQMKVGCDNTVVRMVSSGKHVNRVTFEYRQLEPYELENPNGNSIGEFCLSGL

[8] = target: T5, Corticotropin-releasing factor receptor 2/Corticotropin-releasing factor-binding protein; experiment: Dose Response confirmation of uHTS hits for small molecule antagonists of the CRF-binding protein and CRF-R2 receptor complex.; assay type: functional; conditions: read-out: IC50_Mean
[9] = target: T6, Short transient receptor potential channel 4 (Mus musculus, UniProt Q9QUQ5); experiment: block of DAMGO-driven TRPC4 calcium entry – cell-based, HEK293 TRPC4/mu-opioid, Fluo-4 calcium, dose response (AID 434942); assay type: functional;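 also: potency of inhibitors blocking the TRPC4 calcium response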
T6 sequence (Q9QUQ5 whole entry): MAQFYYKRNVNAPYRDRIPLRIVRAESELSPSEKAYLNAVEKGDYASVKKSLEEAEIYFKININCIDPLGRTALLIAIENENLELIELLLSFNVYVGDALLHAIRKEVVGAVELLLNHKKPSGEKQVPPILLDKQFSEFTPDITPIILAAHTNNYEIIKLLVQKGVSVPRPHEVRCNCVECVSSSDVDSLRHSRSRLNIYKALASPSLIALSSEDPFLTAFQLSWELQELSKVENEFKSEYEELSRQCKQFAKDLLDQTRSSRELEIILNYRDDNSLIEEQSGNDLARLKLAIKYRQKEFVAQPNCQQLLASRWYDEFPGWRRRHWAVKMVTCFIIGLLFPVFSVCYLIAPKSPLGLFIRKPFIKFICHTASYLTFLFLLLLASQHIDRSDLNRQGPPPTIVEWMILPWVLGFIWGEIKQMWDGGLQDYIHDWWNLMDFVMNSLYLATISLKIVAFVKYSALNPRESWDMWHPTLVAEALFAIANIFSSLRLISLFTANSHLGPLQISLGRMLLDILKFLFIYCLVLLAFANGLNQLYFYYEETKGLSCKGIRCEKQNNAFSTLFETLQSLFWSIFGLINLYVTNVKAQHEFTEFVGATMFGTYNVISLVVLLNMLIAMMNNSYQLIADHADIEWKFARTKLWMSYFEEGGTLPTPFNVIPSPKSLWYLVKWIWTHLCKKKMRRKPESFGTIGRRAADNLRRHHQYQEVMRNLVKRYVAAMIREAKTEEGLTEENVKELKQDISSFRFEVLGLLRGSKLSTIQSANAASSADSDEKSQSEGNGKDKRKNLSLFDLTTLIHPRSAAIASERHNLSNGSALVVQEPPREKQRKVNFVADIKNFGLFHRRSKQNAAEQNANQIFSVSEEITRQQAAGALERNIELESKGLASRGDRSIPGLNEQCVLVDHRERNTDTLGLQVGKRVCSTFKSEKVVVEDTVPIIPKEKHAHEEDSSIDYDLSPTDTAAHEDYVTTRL

Genome polyprotein = Genome polyprotein (dengue virus type 2, UniProt P29990); experiment: flavivirus cap methylation enzyme inhibition – biochemical, confirmation dose response, primary screen (AID 588689); assay type: functional
Genome polyprotein, sequence (P29990 2492-3391 limits assumed): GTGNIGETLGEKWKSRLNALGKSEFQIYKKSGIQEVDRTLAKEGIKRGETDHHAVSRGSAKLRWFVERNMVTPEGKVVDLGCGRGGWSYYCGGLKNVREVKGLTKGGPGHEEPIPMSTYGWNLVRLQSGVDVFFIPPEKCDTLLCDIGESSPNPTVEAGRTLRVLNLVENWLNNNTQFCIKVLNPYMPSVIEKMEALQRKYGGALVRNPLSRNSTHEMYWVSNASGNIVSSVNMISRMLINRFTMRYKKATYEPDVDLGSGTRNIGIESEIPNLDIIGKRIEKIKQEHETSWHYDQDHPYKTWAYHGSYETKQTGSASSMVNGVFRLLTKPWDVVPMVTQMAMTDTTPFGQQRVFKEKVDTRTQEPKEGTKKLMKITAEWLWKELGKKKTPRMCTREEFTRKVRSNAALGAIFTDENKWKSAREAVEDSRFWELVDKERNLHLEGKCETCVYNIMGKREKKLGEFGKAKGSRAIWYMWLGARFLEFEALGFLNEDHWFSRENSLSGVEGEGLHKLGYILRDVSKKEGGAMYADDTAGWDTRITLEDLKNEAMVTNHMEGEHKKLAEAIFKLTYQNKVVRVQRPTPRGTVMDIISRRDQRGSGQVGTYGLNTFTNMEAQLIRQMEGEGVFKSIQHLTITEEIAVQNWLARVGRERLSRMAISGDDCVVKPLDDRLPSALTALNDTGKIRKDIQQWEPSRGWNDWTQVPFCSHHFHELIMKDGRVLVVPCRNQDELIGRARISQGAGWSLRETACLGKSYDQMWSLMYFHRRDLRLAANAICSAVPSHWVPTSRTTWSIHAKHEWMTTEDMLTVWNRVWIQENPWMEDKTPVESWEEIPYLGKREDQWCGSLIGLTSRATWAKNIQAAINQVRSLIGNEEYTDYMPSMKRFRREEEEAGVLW

[10] = target: Beta-2 adrenergic receptor (Homo sapiens, UniProt P07550); experiment: ADRB2 activation measured by internalization – cell-based, FAP fluorogen, flow cytometry, cherry pick 1, dose response (AID 588763); assay type: functional
Beta-2 adrenergic receptor, sequence (P07550 whole entry): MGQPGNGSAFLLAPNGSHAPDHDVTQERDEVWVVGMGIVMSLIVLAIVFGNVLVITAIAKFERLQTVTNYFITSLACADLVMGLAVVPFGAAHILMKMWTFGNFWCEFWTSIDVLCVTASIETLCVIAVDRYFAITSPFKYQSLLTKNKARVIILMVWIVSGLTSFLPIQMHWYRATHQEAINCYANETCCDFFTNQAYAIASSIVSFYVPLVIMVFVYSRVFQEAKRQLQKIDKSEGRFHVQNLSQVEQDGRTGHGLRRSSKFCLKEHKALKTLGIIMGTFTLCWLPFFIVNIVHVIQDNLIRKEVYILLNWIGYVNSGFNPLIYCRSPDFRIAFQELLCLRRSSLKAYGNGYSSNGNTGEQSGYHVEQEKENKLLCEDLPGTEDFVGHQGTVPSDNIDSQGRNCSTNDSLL

[11] = target: T7, Lysosomal acid glucosylceramidase (Homo sapiens, UniProt P04062); experiment: Dose response cell-based high throughput screening assay to identify enhancers of beta-glucosidase activity. [Related pubchem assays: 784 ]; assay type: functional
T7 sequence (P04062 whole entry): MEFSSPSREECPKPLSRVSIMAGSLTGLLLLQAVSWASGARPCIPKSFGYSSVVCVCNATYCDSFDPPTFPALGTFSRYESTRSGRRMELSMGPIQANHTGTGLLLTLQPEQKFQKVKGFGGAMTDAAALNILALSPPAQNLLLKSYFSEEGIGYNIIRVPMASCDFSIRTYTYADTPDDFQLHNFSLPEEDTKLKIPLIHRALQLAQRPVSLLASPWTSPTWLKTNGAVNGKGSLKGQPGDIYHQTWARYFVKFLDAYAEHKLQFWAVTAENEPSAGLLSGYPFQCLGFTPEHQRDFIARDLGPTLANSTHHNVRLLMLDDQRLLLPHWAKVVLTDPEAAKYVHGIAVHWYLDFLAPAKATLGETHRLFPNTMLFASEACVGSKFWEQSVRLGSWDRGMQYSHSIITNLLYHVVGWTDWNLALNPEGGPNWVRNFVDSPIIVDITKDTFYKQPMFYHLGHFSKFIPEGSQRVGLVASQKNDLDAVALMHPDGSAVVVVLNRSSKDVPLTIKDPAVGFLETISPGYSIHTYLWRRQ

[12] = target: T8, Long-chain-fatty-acid--AMP ligase FadD28 (Mycobacterium tuberculosis, UniProt P9WQ59); experiment: Fluorescence polarization aasay to screen for inhibitors that compete for the binding of FadD28 to a bisubstrate Measured in Biochemical System Using Plate Reader - 2147-01_Inhibitor_Dose_CherryPick_Activity.; assay type: functional, Mycobacterium tuberculosis H37Rv
T8 sequence (P9WQ59 whole entry): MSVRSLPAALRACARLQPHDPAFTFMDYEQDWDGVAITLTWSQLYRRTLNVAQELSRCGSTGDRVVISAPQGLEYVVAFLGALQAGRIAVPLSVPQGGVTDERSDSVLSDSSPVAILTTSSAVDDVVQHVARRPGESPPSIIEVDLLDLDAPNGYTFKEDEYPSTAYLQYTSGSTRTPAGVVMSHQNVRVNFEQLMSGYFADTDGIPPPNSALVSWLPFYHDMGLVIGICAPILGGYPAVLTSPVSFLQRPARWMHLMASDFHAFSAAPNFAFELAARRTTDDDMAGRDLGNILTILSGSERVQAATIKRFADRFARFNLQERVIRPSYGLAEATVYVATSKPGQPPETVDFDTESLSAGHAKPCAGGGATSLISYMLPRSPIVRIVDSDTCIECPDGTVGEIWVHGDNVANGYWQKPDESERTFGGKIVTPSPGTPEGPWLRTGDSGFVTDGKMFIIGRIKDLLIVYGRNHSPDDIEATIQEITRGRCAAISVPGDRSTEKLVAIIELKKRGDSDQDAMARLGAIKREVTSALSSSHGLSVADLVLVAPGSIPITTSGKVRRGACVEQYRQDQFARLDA

[13] = target: Glucose-6-phosphate 1-dehydrogenase (Homo sapiens, UniProt P11413); experiment: inhibition of Homo sapiens G6PD, dose series – biochemical, fluorescence, selectivity assay for P. falciparum G6PD inhibitor project, dose response (AID 504792); assay type: functional
Glucose-6-phosphate 1-dehydrogenase, sequence (P11413 whole entry): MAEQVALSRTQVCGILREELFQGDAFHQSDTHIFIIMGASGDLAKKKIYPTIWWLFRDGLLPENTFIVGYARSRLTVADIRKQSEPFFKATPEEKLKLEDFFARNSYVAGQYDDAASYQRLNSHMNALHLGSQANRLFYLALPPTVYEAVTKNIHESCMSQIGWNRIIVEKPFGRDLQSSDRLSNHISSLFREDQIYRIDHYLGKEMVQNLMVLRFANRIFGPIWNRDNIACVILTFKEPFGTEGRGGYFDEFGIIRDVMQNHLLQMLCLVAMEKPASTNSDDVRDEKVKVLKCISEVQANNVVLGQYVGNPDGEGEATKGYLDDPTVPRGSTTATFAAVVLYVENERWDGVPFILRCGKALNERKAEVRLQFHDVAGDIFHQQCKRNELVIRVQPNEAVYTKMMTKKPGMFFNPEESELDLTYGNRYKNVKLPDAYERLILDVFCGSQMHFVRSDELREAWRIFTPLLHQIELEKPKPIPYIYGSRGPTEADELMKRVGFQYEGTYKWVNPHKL

T1 sequence (P98170 whole entry): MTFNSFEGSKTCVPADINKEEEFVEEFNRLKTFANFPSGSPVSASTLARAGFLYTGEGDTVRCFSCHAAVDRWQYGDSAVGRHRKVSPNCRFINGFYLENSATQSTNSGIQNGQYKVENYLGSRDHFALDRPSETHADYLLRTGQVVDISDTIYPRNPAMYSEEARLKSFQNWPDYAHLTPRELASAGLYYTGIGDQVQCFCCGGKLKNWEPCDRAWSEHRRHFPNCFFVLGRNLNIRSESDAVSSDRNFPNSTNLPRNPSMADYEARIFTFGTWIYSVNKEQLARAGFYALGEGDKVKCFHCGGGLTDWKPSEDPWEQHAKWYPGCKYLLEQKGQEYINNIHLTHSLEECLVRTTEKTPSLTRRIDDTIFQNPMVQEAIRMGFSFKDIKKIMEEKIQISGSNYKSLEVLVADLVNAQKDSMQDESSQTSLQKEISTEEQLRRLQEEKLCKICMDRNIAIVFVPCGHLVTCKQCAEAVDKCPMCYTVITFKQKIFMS

N#Cc1ccccc1CSc1nc2cc(Br)c[nH]c-2n1
IC50 [1]: > 100 µM (inactive)
IC50 [2]: > 100 µM (not active)

CC(=O)c1ccc(NC2=c3ccccc3=NC2=O)cc1
IC50 [3]: 3.1 µM (active)
EC50 (Beta-galactosidase): > 40 µM (inactive)
EC50 [4]: > 260 µM (inactive)

CCc1ccc(C(=O)NNc2ccc(Cl)cc2)cc1
IC50 [3]: 6.08 µM (active)
EC50 (Beta-galactosidase): > 40 µM (inactive)

CCc1ccc(NC(=O)NNC(=O)c2cc3ccccc3cc2O)cc1
IC50 (SUMO-activating enzyme [5]): 11.6 µM (active)
IC50 (SUMO-activating enzyme [6]): 37.2 µM (active)

O=C(O)CN1C(=O)/C(=C\C(Br)=C\c2ccccc2)SC1=S
CC50 (Vero): > 40 µM (active)
IC50 (Large T antigen): 53.4 µM (active)

Cc1ccc(S(=O)(=O)c2cn(CC(=O)Nc3ccccc3)c3ccc(F)cc3c2=O)cc1
IC50 [1]: > 100 µM (inactive)
IC50 [2]: > 100 µM (not active)

O=C(O)CN1C(c2ccccc2O)Nc2ccc(Br)cc2C1c1ccccc1 (stereo not drawn)
EC50 [7]: > 53 µM (inactive)
IC50 [1]: > 100 µM (inactive)
IC50 [8]: 28.6 µM (active)
EC50 [9]: 5.31 µM (active)
IC50 [2]: > 100 µM (not active)

O=S(=O)(Nc1nc2ccccc2nc1NCc1ccco1)c1ccc(Cl)cc1
IC50 (Genome polyprotein): 91.9 µM (active)
CC50 (Vero): > 40 µM (active)

NC(=O)CC(NC(=O)Cc1cccc2ccccc12)c1ccc(NCCCN2CCCC2=O)c([N+](=O)[O-])c1 (stereo not drawn)
EC50 [10]: 801 nM (active)

CC1CCCCN1C(=O)CSc1nc2cc3c(cc2c(=O)n1Cc1ccc2c(c1)OCO2)OCO3 (stereo not drawn)
EC50 [11]: > 50 µM (not active)
IC50 [3]: > 40 µM (not active)
EC50 (Beta-galactosidase): > 40 µM (inactive)

CCCCCCCCSC1=CC(=O)C(OC)=C(OC)C1=O
AC50 [12]: 30.9 µM (active)
IC50 (Genome polyprotein): 12.5 µM (active)
CC50 (Vero): > 40 µM (active)
IC50 [13]: 48.1 µM (inactive)
